These results are taken from patent publication US11166942B2 (PRAXIS BIOTECH LLC, priority 2018, dated 2021).

In assay [1] the test system is Chinese hamster ovary (CHO) cells. Put plainly: Protein translation assay (puromycin labelling, CHO cells). Type of assay: cell-based. Conditions: media alone = 100%; for activity at 1 µM: Cricetulus griseus, CHO. Put shortly:
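CHO cells given compound 2 h at 1 μM (unstressed), or 1 h at 100 nM or 1 μM then co-treated with 300 nM Tg (stressed); 10 μg/ml puromycin pulse 30 min, anti-puromycin western blot with β-actin, densitometry. Normalized to media alone (100%) and, for stressed cells, Tg alone (0%).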

The next assay concerns ATF4. The experiment in a line: ATF4 expression inhibition assay (ATF4 5'UTR luciferase reporter, Tg-stressed HEK293T cells). As to conditions: 100 nM thapsigargin, 3 hours, HEK293T ATF4 luciferase reporter; for inhibition at 0.1 µM: 100 nM test compound, read-out: % ATF4 inhibition at 100 nM; for IC50: read-out: ATF4 inhbition IC50; for inhibition at 1 µM: 1 μM test compound, read-out: % ATF4 inhibition at 1 μM. The class given is cell-based, human. Put shortly: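 HEK293T stably expressing luciferase fused downstream of human full-length ATF4 5′UTR, stressed with 100 nM thapsigargin plus compound (100 nM or 1 μM; IC50 series 0.1 nM to 1 μM) for 3 h at 37° C. Luminescence normalized to Tg alone (0%) and untreated cells (100% inhibition).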

The next assay has as its system HEK293T cells. Put plainly: Recovery of protein translation in stressed HEK293T cells. Type of assay: cell-based, human. From the text: Despite the great potency on the inhibition of ATF4 expression, ISRIB is not able to completely restore protein synthesis when the global protein translation is decreased under these stress conditions. […] Compound 4 has a great potency for the inhibition of ATF4 expression under stress condition (FIG. 3) and is much better at restoring global protein translation under ER stress-mediated repression and going beyond a 100% recovery (FIG. 4).

The subject of assay [2] is hippocampal slices from transgenic APP/PS1 mice. Put plainly: Electrophysiology and long-term potentiation in hippocampal slices. As to conditions: slices from APP/PS1 mouse, 5 μM, 20 min before stimulation (FIGS. 5A, 5B). Here is the method: Hippocampal slices were prepared as described in Ardiles et al., Pannexin 1 regulates bidirectional hippocampal synaptic plasticity in adult mice. Front Cell Neurosci, vol. 8, art. 326 (2014). Six to nine-month-old WT C57BL/6 or transgenic APP/PS1 mice (Jackson Lab 34829-JAX) were deeply anesthetized with isoflurane and their brains were quickly removed. 5-10 slices (350 μm) from each animal were dissected in ice-cold dissection buffer using a vibratome (Leica VT1200S, Leica Microsystems, Nussloch, Germany). Slices were incubated with 5 μM ISRIB (trans-N,N′-1,4-cyclohexanediylbis[2-(4-chlorophenoxy)-acetamide) or a vehicle (complete medium containing 0.1% DMSO) 20 min before conditioning stimulation. Synaptic responses were evoked by stimulating the Schaffer collaterals with 0.2 ms pulses delivered through concentric bipolar stimulating electrodes, and recorded extracellularly in the stratum radiatum of the CA1 subfield. Long-term potentiation (LTP) was induced by four-theta burst stimulation (TBS) (10 trains of four pulses at 100 Hz; 5 Hz inter-burst interval) delivered at 0.1 Hz. LTP magnitude based on field excitatory postsynaptic potential (fEPSP) was calculated as the average (normalized to baseline) of the responses recorded 60 min after conditioning stimulation. Similar experiments can be performed using a test compound in place of ISRIB.

[3] abbreviates: 2 h, unstressed CHO cells, 1 μM, 2 hours, read-out: % Protein synthesis in unstressed cells (1 μM test compound).
Where [4] appears, read: CHO cells stressed with 300 nM Tg, 1 μM compound, Tg alone = 0%, read-out: % Recovery of protein expression (1 μM test compound).

Where two headings read alike, the source gives them in different places.

As for `O=C(COc1ccc(Cl)c(F)c1)NC1CCN(NC(=O)COc2ccc(Cl)c(F)c2)CC1` [Compound 4, N,N′-(piperidine-1,4-diyl)bis(2-(4-chloro-3-fluorophenoxy)acetamide)], the “% Recovery of protein expression (100 nM test compound)” value in assay [1] (CHO cells stressed with 300 nM Tg, 100 nM compound, Tg alone = 0%) is recorded as 83.5%. In assay [1] (setting [3]), the activity at 1 µM was found to be 105%. Also, the activity at 1 µM in assay [1] (setting [4]) was found to be 169%. Moreover, in the assay on ATF4 (Homo sapiens, HEK-293T, 3 h), the inhibition at 0.1 µM came to 93.2%, the IC50 is 3.1 nM and the inhibition at 1 µM came to 94.7%. For the same compound, the “percent recovery of protein translation in stressed cells” value in the assay with HEK293T cells (1 μM (FIG. 4)) is reported as over 100%.

In the case of `O=C(NN1CCN(C[C@H](O)COc2ccc(Cl)c(F)c2)CC1)c1ccc2cc(Cl)ccc2c1` [Compound 61, (S)-6-chloro-N-(4-(3-(4-chloro-3-fluorophenoxy)-2-hydroxypropyl)piperazin-1-yl)-2-naphthamide], the activity at 1 µM in assay [1] (setting [3]) was found to be 195%. Further, the activity at 1 µM in assay [1] (setting [4]) came out at 171%. Further, in the assay with ATF4 (Homo sapiens, HEK-293T, 3 h), the inhibition at 0.1 µM turned out to be 72.4%, the IC50 is 29.4 nM and the inhibition at 1 µM was 86.6%.

With `O=C(NN1CCN(C[C@@H](O)COc2ccc(Cl)c(F)c2)CC1)c1ccc(OC(F)(F)F)cc1` [Compound 62, (R)-N-(4-(3-(4-chloro-3-fluorophenoxy)-2-hydroxypropyl)piperazin-1-yl)-4-(trifluoromethoxy)benzamide], the activity at 1 µM in assay [1] (setting [3]) was determined as 99.5%. The activity at 1 µM in assay [1] (setting [4]) was 40.2%. In addition, in the assay on ATF4 (Homo sapiens, HEK-293T, 3 h), the inhibition at 0.1 µM worked out at 85.9%, the IC50 is under 100 nM and the inhibition at 1 µM was determined as 88.8%.

With `O=C(NN1CCN(C[C@@H](O)COc2ccc(Cl)c(F)c2)CC1)c1ccc(Cl)cc1` [Compound 63, (R)-4-chloro-N-(4-(3-(4-chloro-3-fluorophenoxy)-2-hydroxypropyl)piperazin-1-yl)benzamide], the activity at 1 µM in assay [1] (setting [3]) was 107%. Moreover, the activity at 1 µM in assay [1] (setting [4]) came to 16.4%. Further, in the assay with ATF4 (Homo sapiens, HEK-293T, 3 h), the inhibition at 0.1 µM was determined as 14.8%, the IC50 is under 1000 nM and the inhibition at 1 µM amounted to 84.6%.

With `O=C(NN1CCN(C[C@@H](O)COc2ccc(Cl)c(F)c2)CC1)c1ccc(Cl)cn1` [Compound 64, (R)-5-chloro-N-(4-(3-(4-chloro-3-fluorophenoxy)-2-hydroxypropyl)piperazin-1-yl)picolinamide], in assay [1] (setting [3]), the activity at 1 µM turned out to be 109%. In addition, the activity at 1 µM in assay [1] (setting [4]) is 34.7%. For the same compound, in the assay on ATF4 (Homo sapiens, HEK-293T, 3 h), the inhibition at 0.1 µM stood at 20% and the inhibition at 1 µM was 56.6%.

Take `O=C(NN1CCN(C[C@@H](O)COc2ccc(Cl)c(F)c2)CC1)c1ccc(C(F)(F)F)cn1` [Compound 65, (R)-N-(4-(3-(4-chloro-3-fluorophenoxy)-2-hydroxypropyl)piperazin-1-yl)-5-(trifluoromethyl)picolinamide]: the activity at 1 µM in assay [1] (setting [3]) amounted to 99%. Moreover, the activity at 1 µM in assay [1] (setting [4]) was found to be 51.1%. In addition, in the assay with ATF4 (Homo sapiens, HEK-293T, 3 h), the inhibition at 0.1 µM was 22.6%, the IC50 was under 1000 nM and the inhibition at 1 µM was 80.5%.

Turning to `O=C(NN1CCN(C[C@@H](O)COc2ccc(Cl)c(F)c2)CC1)c1cnc(C(F)F)cn1` [Compound 66, (R)-N-(4-(3-(4-chloro-3-fluorophenoxy)-2-hydroxypropyl)piperazin-1-yl)-5-(difluoromethyl)pyrazine-2-carboxamide], in assay [1] (setting [3]), the activity at 1 µM was found to be 84.9%. For the same compound, the activity at 1 µM in assay [1] (setting [4]) turned out to be 17.6%. Moreover, in the assay with ATF4 (Homo sapiens, HEK-293T, 3 h), the inhibition at 0.1 µM is 0%, the IC50 is over 1000 nM and the inhibition at 1 µM was 0%.

`N#Cc1ccc(C(=O)NN2CCN(C[C@@H](O)COc3ccc(Cl)c(F)c3)CC2)nc1` [Compound 67, (R)-N-(4-(3-(4-chloro-3-fluorophenoxy)-2-hydroxypropyl)piperazin-1-yl)-5-cyanopicolinamide]: the activity at 1 µM in assay [1] (setting [3]) is 80%. In addition, in assay [1] (setting [4]), the activity at 1 µM is 27.6%. Further, in the assay on ATF4 (Homo sapiens, HEK-293T, 3 h), the inhibition at 0.1 µM was determined as 3.6%, the IC50 was over 1000 nM and the inhibition at 1 µM was 27.8%.

As to `O=C(NN1CCC(NC[C@@H](O)COc2ccc(Cl)c(F)c2)CC1)c1ccc(Cl)cn1` [Compound 68, (R)-5-chloro-N-(4-((3-(4-chloro-3-fluorophenoxy)-2-hydroxypropyl)amino)piperidin-1-yl)picolinamide], the results for the activity at 1 µM in assay [1] (setting [3]) and in assay [1] (setting [4]) were 81.8% and 49.3%, respectively. In addition, in the assay on ATF4 (Homo sapiens, HEK-293T, 3 h), the inhibition at 0.1 µM turned out to be 9%. In addition, the inhibition at 1 µM with ATF4 (Homo sapiens, HEK-293T, 3 h) amounted to 50.9%.

For the compound `COc1ccc2oc(C(=O)NN3CCC(NC[C@@H](O)COc4ccc(Cl)c(F)c4)CC3)cc2c1` [Compound 69, (R)-N-(4-((3-(4-chloro-3-fluorophenoxy)-2-hydroxypropyl)amino)piperidin-1-yl)-5-methoxybenzofuran-2-carboxamide], the activity at 1 µM in assay [1] (setting [3]) was determined as 129%. Moreover, the activity at 1 µM in assay [1] (setting [4]) turned out to be 43.1%. Moreover, in the assay on ATF4 (Homo sapiens, HEK-293T, 3 h), the inhibition at 0.1 µM was 37%, the IC50 is under 1000 nM and the inhibition at 1 µM was determined as 78.1%.

Turning to `O=C(COc1ccc(Cl)cc1)N[C@H]1CC[C@H](NC(=O)COc2ccc(Cl)cc2)CC1` [ISRIB, reference compound], the “long-term potentiation (LTP, fEPSP slope) 60 min after theta burst stimulation” value in assay [2] is on record as “partial LTP recovery”. In addition, in the assay with ATF4, the IC50 stood at 5 nM. Besides, the “restoration of protein translation in stressed cells” value in the assay on HEK293T cells (up to 200-fold its IC50 value (FIG. 2)) was “only partially restores protein translation”.
